{"source": "patent US7973069B2", "about": "(PTC Therapeutics, Inc., priority 2004, dated 2011)", "key": {"wild-type poliovirus": {"tested_on": "wild-type poliovirus", "format": "cell-based", "settings": "HeLa cells infected with wild-type poliovirus at MOI 0.1, treated one day, CPE score; for WT-PV CPE (1 μM)*: 1 μM compound; for WT-PV CPE (10 μM)*: 10 μM compound; for WT-PV CPE (100 μM)*: 100 μM compound"}, "HCV replicon": {"tested_on": "HCV replicon", "format": "cell-based"}}, "data": [{"smiles": "COc1ccc2c(C#N)c(C)n(-c3ccc4c(c3)OCO4)c2c1", "note": "[Compound 24]", "values": [{"measurement": "WT-PV CPE (1 μM)*", "setting": "wild-type poliovirus", "result": 2}, {"measurement": "WT-PV CPE (10 μM)*", "setting": "wild-type poliovirus", "result": 2}, {"measurement": "WT-PV CPE (100 μM)*", "setting": "wild-type poliovirus", "result": 3}]}, {"smiles": "C[C@@H](OC(=O)Nc1ccc(-c2c(C#N)c3ccc(-c4ncccn4)cc3n2C2CCC2)cc1)C1CC1", "note": "[Compound 2419, [4-(3-cyano-1-cyclobutyl-6-pyrimidin-2-yl-1H-indol-2-yl)-phenyl]-carbamic acid 1-cyclopropyl-ethyl ester]", "values": [{"measurement": "melting point", "result": "212 to 214", "unit": "°C"}]}, {"smiles": "COc1ccc(-n2cc(C#N)c3ccc(OC)cc32)cc1", "note": "[Compound 4]", "values": [{"measurement": "WT-PV CPE (1 μM)*", "setting": "wild-type poliovirus", "result": 1}, {"measurement": "WT-PV CPE (10 μM)*", "setting": "wild-type poliovirus", "result": 2}, {"measurement": "WT-PV CPE (100 μM)*", "setting": "wild-type poliovirus", "result": 3}]}, {"smiles": "C[C@@H](OC(=O)Nc1ccc(-c2c(C#N)c3ccc(Oc4ncccn4)cc3n2C2CCC2)cc1)C1CC1", "note": "[Compound 2210, (R)-{4-[3-cyano-1-cyclobutyl-6-(pyrimidin-2-yloxy)-1H-indol-2-yl]-phenyl}carbamic acid 1-cyclopropyl-ethyl ester]", "values": [{"measurement": "melting point", "result": "194 to 196", "unit": "°C"}]}, {"smiles": "CCn1c(-c2ccc(OC)cc2)c(C#N)c2ccc(OC)cc21", "note": "[Compound 19]", "values": [{"measurement": "WT-PV CPE (1 μM)*", "setting": "wild-type poliovirus", "result": 1}, {"measurement": "WT-PV CPE (10 μM)*", "setting": "wild-type poliovirus", "result": 2}, {"measurement": "WT-PV CPE (100 μM)*", "setting": "wild-type poliovirus", "result": 3}]}, {"smiles": "C[C@@H](OC(=O)Nc1ccc(-c2c(C#N)c3ccc(-c4ccccn4)cc3n2C2CCC2)cc1)C1CC1", "note": "[Compound 2417, [4-(3-cyano-1-cyclobutyl-6-pyridin-2-yl-1H-indol-2-yl)-phenyl]-carbamic acid 1-cyclopropyl-ethyl ester]", "values": [{"measurement": "melting point", "result": "118 to 120", "unit": "°C"}]}, {"smiles": "CCn1cc(C#N)c2ccc(OC(C)C)cc21", "note": "[Compound 10]", "values": [{"measurement": "WT-PV CPE (1 μM)*", "setting": "wild-type poliovirus", "result": 2}, {"measurement": "WT-PV CPE (10 μM)*", "setting": "wild-type poliovirus", "result": 2}, {"measurement": "WT-PV CPE (100 μM)*", "setting": "wild-type poliovirus", "result": 3}]}, {"smiles": "CCCS(=O)(=O)Nc1ccc(-c2c(C#N)c3ccc(OC(F)F)cc3n2CC)cc1", "note": "[Compound 928, Propane-1-sulfonic acid [4-(3-cyano-6-difluoromethoxy-1-ethyl-1H-indoel-2-yl)-phenyl]-amide]", "values": [{"measurement": "melting point", "result": "206 to 208", "unit": "°C"}]}, {"smiles": "CC(C)Nc1ccc(-c2c(C#N)c3ccc(Oc4ncccn4)cc3n2C2CC2)cc1", "note": "[Compound 2434, 1-cyclopropyl-2-(4-isopropylamino-phenyl)-6-(pyrimidin-2-yloxy)-1H-indole-3-carbonitrile]", "values": [{"measurement": "melting point", "result": "215 to 217", "unit": "°C"}]}, {"smiles": "C[C@@H](OC(=O)Nc1ccc(-c2c(C#N)c3ccc(Oc4ncccn4)cc3n2C2CC2)cc1)C1CC1", "note": "[Compound 2217, (R)-{4-[3-cyano-1-cyclopropyl-6-(pyrimidin-2-yloxy)-1H-indol-2-yl]-phenyl}-carbamic acid 1-cyclopropylethyl ester]", "values": [{"measurement": "melting point", "result": "154 to 156", "unit": "°C"}]}, {"smiles": "CC(C)OC(=O)Nc1ccc(-c2c(C#N)c3ccc(Oc4ncccn4)cc3n2C2CCC2)cc1Cl", "note": "[Compound 2339, {2-chloro-4-[3-cyano-1-cyclobutyl-6-(pyrimidin-2-yloxy)-1H-indol-2-yl]-phenyl}-carbamic acid isopropyl ester]", "values": [{"measurement": "melting point", "result": "165 to 165.5", "unit": "°C"}]}, {"smiles": "CC(C)NS(=O)(=O)Nc1ccc(-c2c(C#N)c3ccc(Oc4ncccn4)cc3n2C2CCC2)cc1", "note": "[Compound 2263]", "values": [{"measurement": "melting point", "result": "223 to 224", "unit": "°C"}]}, {"smiles": "CCOc1ccc2c(C#N)c(-c3ccc(NC(=O)OCCN4CCOCC4)cc3)n(C3CCC3)c2c1", "note": "[Compound 1192]", "values": [{"measurement": "IC50", "setting": "HCV replicon", "result": "0.5 to 2", "unit": "µM"}]}, {"smiles": "C[C@@H](OC(=O)Nc1ccc(-c2c(C#N)c3ccc(OCCF)cc3n2C2CCC2)cc1)C1CC1", "note": "[Compound 2326]", "values": [{"measurement": "IC50", "setting": "HCV replicon", "result": "< 0.5", "unit": "µM"}]}, {"smiles": "COc1ccc2c(c1)c(C#N)c(-c1ccc(NC(=O)OCC(C)C)cc1)n2C1CCC1", "note": "[Compound 1178]", "values": [{"measurement": "IC50", "setting": "HCV replicon", "result": "< 0.5", "unit": "µM"}]}, {"smiles": "CC(C)OC(=O)Nc1ccc(-c2c(C#N)c3ccc(OCCN4CCCC4)cc3n2C2CCC2)cc1", "note": "[Compound 1142]", "values": [{"measurement": "IC50", "setting": "HCV replicon", "result": "< 0.5", "unit": "µM"}]}, {"smiles": "CCn1c(-c2ccc(NC(=O)C3CC3)cc2)c(C#N)c2ccc(OCCN3CCCC3)cc21", "note": "[Compound 1054]", "values": [{"measurement": "IC50", "setting": "HCV replicon", "result": "0.5 to 2", "unit": "µM"}]}, {"smiles": "CCn1c(-c2ccc(NC(C)=O)cc2)c(C#N)c2ccc(OC(F)(F)F)cc21", "note": "[Compound 913]", "values": [{"measurement": "IC50", "setting": "HCV replicon", "result": "0.5 to 2", "unit": "µM"}]}, {"smiles": "CC(C)OC(=O)Nc1ccc(-c2c(C#N)c3ccc(OCCCN4CCOCC4)cc3n2C2CCC2)cc1", "note": "[Compound 1253]", "values": [{"measurement": "IC50", "setting": "HCV replicon", "result": "0.5 to 2", "unit": "µM"}]}, {"smiles": "CCCCNC(=O)Nc1ccc(-c2c(C#N)c3cc(OC)ccc3n2CCC)cc1", "note": "[Compound 1008]", "values": [{"measurement": "IC50", "setting": "HCV replicon", "result": "0.5 to 2", "unit": "µM"}]}, {"smiles": "CCOc1ccc2c(C#N)c(-c3ccc(NC(=O)OCC4CC4)cc3)n(C3CCC3)c2c1", "note": "[Compound 1146]", "values": [{"measurement": "IC50", "setting": "HCV replicon", "result": "< 0.5", "unit": "µM"}]}, {"smiles": "CCOc1ccc2c(C#N)c(-c3cccc(N4CCCS4(=O)=O)c3)n(CC)c2c1", "note": "[Compound 907]", "values": [{"measurement": "IC50", "setting": "HCV replicon", "result": "0.5 to 2", "unit": "µM"}]}, {"smiles": "CCCn1c(-c2ccc(NC(=O)NCCc3ccccc3)cc2)c(C#N)c2ccc(OCC)cc21", "note": "[Compound 1256]", "values": [{"measurement": "IC50", "setting": "HCV replicon", "result": "< 0.5", "unit": "µM"}]}, {"smiles": "CCOC(=O)Nc1ccc(-c2c(C#N)c3ccc(OC)cc3n2CC)cc1F", "note": "[Compound 876]", "values": [{"measurement": "IC50", "setting": "HCV replicon", "result": "0.5 to 2", "unit": "µM"}]}, {"smiles": "CCn1c(-c2ccc(NC(=O)OCCCl)cc2)c(C#N)c2ccc(OCCCN3CCOCC3)cc21", "note": "[Compound 1114]", "values": [{"measurement": "IC50", "setting": "HCV replicon", "result": "< 0.5", "unit": "µM"}]}, {"smiles": "CCOc1ccc2c(C#N)c(-c3ccc(NC(=O)OC(C)C(C)C)cc3)n(C3CCC3)c2c1", "note": "(stereo not shown) [Compound 1290]", "values": [{"measurement": "IC50", "setting": "HCV replicon", "result": "< 0.5", "unit": "µM"}]}, {"smiles": "CC(C)OC(=O)Nc1ccc(-c2c(C#N)c3ccc(OCCCN4CCN(C)CC4)cc3n2C2CCC2)cc1", "note": "[Compound 1261]", "values": [{"measurement": "IC50", "setting": "HCV replicon", "result": "< 0.5", "unit": "µM"}]}, {"smiles": "CCOC(=O)Nc1ccc(-c2c(C#N)c3ccc(OCC)cc3n2C2CCC2)cc1", "note": "[Compound 971]", "values": [{"measurement": "IC50", "setting": "HCV replicon", "result": "< 0.5", "unit": "µM"}]}, {"smiles": "CCn1c(-c2ccc(N3CCNC3=O)cc2)c(C#N)c2ccc(OCCCN3CCCC3)cc21", "note": "[Compound 1085]", "values": [{"measurement": "IC50", "setting": "HCV replicon", "result": "< 0.5", "unit": "µM"}]}]}
